In PMC7802075 (ACS Infectious Diseases, 2020):
Structures can show the parent of a compound that is named as a salt. Where two headings read alike, the source gives them in different places. Where a SMILES comes first, the peptide text is derived from it. The star is where a group is joined. Tfa = O=C(C(F)(F)F)*

Molecular target: T1, LmjIPCS (inositol phosphorylceramide synthase from L. major) (Leishmania major, UniProt E9AFX2)
T1 sequence (E9AFX2 1-338): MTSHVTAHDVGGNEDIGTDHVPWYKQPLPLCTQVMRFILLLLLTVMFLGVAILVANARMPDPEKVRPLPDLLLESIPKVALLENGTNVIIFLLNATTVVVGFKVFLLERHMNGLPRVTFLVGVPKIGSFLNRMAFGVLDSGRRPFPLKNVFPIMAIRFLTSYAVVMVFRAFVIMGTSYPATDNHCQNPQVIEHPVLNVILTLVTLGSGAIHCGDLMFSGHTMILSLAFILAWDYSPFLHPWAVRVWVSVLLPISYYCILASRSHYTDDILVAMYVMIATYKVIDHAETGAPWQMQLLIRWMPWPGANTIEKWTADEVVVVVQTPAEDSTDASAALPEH
Assay: biochemical
Assay type: biochemical
Design: inhibition: dose or concentration left out as unconfirmed
Details: for inhibition: read-out: inhibition LmjIPCS; for inhibition at 20000 µM: read-out: 20mM inhibition LmjIPCS

[1] = screening of NINDS set, sheet Screen 1
[2] = NINDS set screen, single concentration printed as 20mM
[3] = single concentration 20mM as printed, screening of NINDS set, sheet Screen 1

## CCN(CC)CCNC(=O)c1cc(S(C)(=O)=O)ccc1OC [TIAPRIDE]
NINDS set screen
  inhibition: -5%

## CC(C)(C)NC[C@H](O)COc1nsnc1N1CCOCC1 [TIMOLOL]
  inhibition: 22%

## CCS(=O)(=O)CCn1c([N+](=O)[O-])cnc1C [TINIDAZOLE]
  inhibition at 20000 µM: 15%

## O=c1oc2cc(O)ccc2s1 [TIOXOLONE]
[1]
  inhibition: 3%

## CCOC(=O)NNc1nncc2ccccc12 [TODRALAZINE]
[1]
  inhibition: 2%

## Cc1ccc(S(=O)(=O)NC(=O)NN2CCCCCC2)cc1 [TOLAZAMIDE]
  inhibition at 20000 µM: -5%

## c1ccc(CC2=NCCN2)cc1 [TOLAZOLINE]
  inhibition at 20000 µM: 2.77%

## CCCCNC(=O)NS(=O)(=O)c1ccc(C)cc1 [TOLBUTAMIDE]
  inhibition: 30%

## Cc1c(Cl)cccc1Nc1ccccc1C(=O)O [TOLFENAMIC ACID]
[1]
  inhibition: 4.68%

## Cc1ccc(C(=O)c2ccc(CC(=O)O)n2C)cc1 [TOLMETIN]
  inhibition at 20000 µM: 4%

## Cc1cccc(N(C)C(=S)Oc2ccc3ccccc3c2)c1 [TOLNAFTATE]
  20mM inhibition LmjIPCS: 62%

## C[C@H]1CC[C@]2(NC1)O[C@H]1C[C@H]3[C@@H]4CC[C@H]5C[C@@H](O[C@@H]6O[C@H](CO)[C@H](O[C@@H]7O[C@H](CO)[C@@H](O)[C@H](O[C@@H]8OC[C@@H](O)[C@H](O)[C@H]8O)[C@H]7O[C@@H]7O[C@H](CO)[C@@H](O)[C@H](O)[C@H]7O)[C@H](O)[C@H]6O)CC[C@]5(C)[C@H]4CC[C@]3(C)[C@H]1[C@@H]2C [TOMATINE]
  inhibition at 20000 µM: 12%

## CC1(C)O[C@@H]2[C@@H](CO[C@@]3(COS(N)(=O)=O)OC(C)(C)O[C@@H]23)O1 [TOPIRAMATE]
NINDS set screen
  inhibition: 16%

## Cc1cccc(Nc2ccncc2S(=O)(=O)NC(=O)NC(C)C)c1 [TORSEMIDE]
  inhibition at 20000 µM: 29%

## CCOC(=O)[C@H](CCc1ccccc1)N[C@@H](C)C(=O)N1[C@H](C(=O)O)C[C@H]2CCCC[C@@H]21 [TRANDOLAPRIL]
  inhibition at 20000 µM: 7.54%

## NC[C@H]1CC[C@H](C(=O)O)CC1 [TRANEXAMIC ACID]
[1]
  inhibition: 2.2%

## CC(=O)OCC(COC(C)=O)OC(C)=O [TRIACETIN]
NINDS set screen
  inhibition: 29%

## CC(C)(C)C(=O)C(Oc1ccc(Cl)cc1)n1cncn1 (stereo not drawn) [TRIADIMEFON]
  inhibition at 20000 µM: 17%

## CC1(C)O[C@@H]2C[C@H]3[C@@H]4CCC5=CC(=O)C=C[C@]5(C)[C@@]4(F)[C@@H](O)C[C@]3(C)[C@]2(C(=O)CO)O1 [TRIAMCINOLONE ACETONIDE]
  20mM inhibition LmjIPCS: 37%

## CC(=O)OCC(=O)[C@@]1(O)[C@H](OC(C)=O)C[C@H]2[C@@H]3CCC4=CC(=O)C=C[C@]4(C)[C@@]3(F)[C@@H](O)C[C@@]21C [TRIAMCINOLONE DIACETATE]
  inhibition at 20000 µM: 10%

## C[C@]12C=CC(=O)C=C1CC[C@H]1[C@@H]3C[C@@H](O)[C@](O)(C(=O)CO)[C@@]3(C)C[C@H](O)[C@@]12F [TRIAMCINOLONE]
NINDS set screen
  inhibition: -1.57%

## NS(=O)(=O)c1cc2c(cc1Cl)NC(C(Cl)Cl)NS2(=O)=O (stereo not drawn) [TRICHLORMETHIAZIDE]
  inhibition: 20%

## OC(CCN1CCCCC1)(c1ccccc1)C1CCCCC1 (stereo not drawn) [TRIHEXYPHENIDYL]
  20mM inhibition LmjIPCS: 57%

## COc1cc(C(=O)NCc2ccc(OCCN(C)C)cc2)cc(OC)c1OC [TRIMETHOBENZAMIDE]
NINDS set screen
  inhibition: 28%

## CC(CN(C)C)CN1c2ccccc2CCc2ccccc21 (stereo not drawn) [TRIMIPRAMINE]
[1]
  inhibition: 2%

## Cc1cc2cc3c(C)cc(=O)oc3c(C)c2o1 [TRIOXSALEN]
[2]
  20mM inhibition LmjIPCS: 42%

## Cc1ccc(/C(=C\CN2CCCC2)c2ccccn2)cc1 [TRIPROLIDINE]
  20mM inhibition LmjIPCS: 42%

## O=C(O)CN(CCN(CC(=O)O)CC(=O)O)CC(=O)O.[Na+].[Na+].[Na+] [TRISODIUM ETHYLENEDIAMINE TETRACETATE]
NINDS set screen, single concentration 20mM as printed
  20mM inhibition LmjIPCS: -4.23%

## CO[C@H]1C[C@H](O[C@H]2[C@H](C)[C@@H](O[C@@H]3O[C@H](C)C[C@H](N(C)C)[C@H]3OC(C)=O)[C@@H](C)C[C@@]3(CO3)C(=O)[C@H](C)[C@@H](OC(C)=O)[C@@H](C)[C@@H](C)OC(=O)[C@@H]2C)O[C@@H](C)[C@@H]1OC(C)=O [TROLEANDOMYCIN]
  inhibition: 18%

## C[C@@H]1O[C@@H](OC[C@H]2O[C@@H](Oc3c(-c4ccc(OCCO)c(OCCO)c4)oc4cc(OCCO)cc(O)c4c3=O)[C@H](O)[C@@H](O)[C@@H]2O)[C@H](O)[C@H](O)[C@H]1O [TROXERUTIN]
  inhibition at 20000 µM: 20%

## NCCc1c[nH]c2ccccc12 [TRYPTAMINE]
  inhibition at 20000 µM: 27%

## N[C@@H](Cc1c[nH]c2ccccc12)C(=O)O [TRYPTOPHAN]
  20mM inhibition LmjIPCS: 34%

## CCCCCC(C)N (stereo not drawn) [TUAMINOHEPTANE]
  inhibition at 20000 µM: 26%

## CC(C)(C)NCC(O)c1ccccc1Cl (stereo not drawn) [TULOBUTEROL]
  20mM inhibition LmjIPCS: 51%

## CC[C@H]1OC(=O)C[C@@H](O)[C@H](C)[C@@H](O[C@@H]2O[C@H](C)[C@@H](O[C@H]3C[C@@](C)(O)[C@@H](O)[C@H](C)O3)[C@H](N(C)C)[C@H]2O)[C@@H](CC=O)C[C@@H](C)C(=O)/C=C/C(C)=C/[C@@H]1CO[C@@H]1O[C@H](C)[C@@H](O)[C@@H](OC)[C@H]1OC [TYLOSIN]
  inhibition at 20000 µM: 5%

## CC(C)[C@H](NC(=O)[C@H](Cc1ccc(O)cc1)NC(=O)[C@@H](NC(=O)C(F)(F)F)C(C)C)C(=O)O [Tfa-VAL-TYR-VAL-OH] (Tfa-Val-Tyr-Val-OH)
  inhibition at 20000 µM: 7.54%

## C[C@H](CCC(=O)O)[C@H]1CC[C@H]2[C@@H]3[C@@H](O)C[C@@H]4C[C@H](O)CC[C@]4(C)[C@H]3CC[C@]12C [URSODIOL]
  inhibition: 8%

## CC(=O)c1c(O)c(C)c(O)c2c1OC1=CC(=O)C(C(C)=O)C(=O)C12C (stereo not drawn) [USNIC ACID]
  inhibition at 20000 µM: 29%

## Cc1onc(-c2ccccc2)c1-c1ccc(S(N)(=O)=O)cc1 [VALDECOXIB]
[1]
  inhibition: 3.24%

## CCCCC(=O)Oc1ccccc1C(=O)O [VALERYL SALYCILATE]
  inhibition at 20000 µM: 10%

## CCCC(CCC)C(=O)O [VALPROATE SODIUM]
  inhibition: 0.506%

## CC(C)[C@H](N)C(=O)N[C@@H](Cc1c[nH]c2ccccc12)C(=O)O [VALYLTRYPTOPHAN] (H-Val-Trp-OH)
[1]
  inhibition: 6%

## CN[C@H](CC(C)C)C(=O)N[C@H]1C(=O)N[C@@H](CC(N)=O)C(=O)N[C@H]2C(=O)N[C@H]3C(=O)N[C@H](C(=O)N[C@H](C(=O)O)c4cc(O)cc(O)c4-c4cc3ccc4O)[C@H](O)c3ccc(c(Cl)c3)Oc3cc2cc(c3O[C@@H]2O[C@H](CO)[C@@H](O)[C@H](O)[C@H]2O[C@H]2C[C@](C)(N)[C@H](O)[C@H](C)O2)Oc2ccc(cc2Cl)[C@H]1O [VANCOMYCIN]
  inhibition at 20000 µM: 31%

## COc1ccc(C(CN(C)C)C2(O)CCCCC2)cc1 (stereo not drawn) [VENLAFAXINE]
  inhibition at 20000 µM: 26%

## COc1ccc(C(=O)O[C@H]2CC[C@@]3(C)[C@@H]4CC[C@H]5[C@]6(O)C[C@H](O)[C@@]7(O)[C@@H](CN8C[C@@H](C)CC[C@H]8[C@@]7(C)O)[C@]6(O)C[C@@]53O[C@]24O)cc1OC [VERATRIDINE]
  inhibition at 20000 µM: 11%

## Nc1ncnc2c1ncn2[C@@H]1O[C@H](CO)[C@@H](O)[C@@H]1O [VIDARABINE]
  inhibition: 10%

## CC[C@]12CCCN3CCc4c(n(c5ccccc45)C(=O)C1)[C@@H]32 [VINBURNINE]
[2]
  20mM inhibition LmjIPCS: 55%

## CC[C@]12CCCN3CCc4c(n(c5ccccc45)[C@@](O)(C(=O)OC)C1)[C@@H]32 [VINCAMINE]
NINDS set screen
  inhibition: -17%

## CCOC(=O)C1=C[C@]2(CC)CCCN3CCc4c(n1c1ccccc41)[C@@H]32 [VINPOCETINE]
[2]
  20mM inhibition LmjIPCS: 36%

## COC(=O)/C(=C1/OC(=O)C(c2ccccc2)=C1O)c1ccccc1 [VULPINIC ACID]
NINDS set screen
  inhibition: 13%

## Cc1cccc(C)c1N=C1NCCCS1 [XYLAZINE]
  inhibition at 20000 µM: -14%

## Cc1cc(C(C)(C)C)cc(C)c1CC1=NCCN1 [XYLOMETAZOLINE]
[2]
  20mM inhibition LmjIPCS: 62%

## O=C(O)c1cc(O)c2cccc(O)c2n1 [X[…]]
  inhibition at 20000 µM: 8%

## COC(=O)[C@@H]1[C@H]2C[C@H]3c4[nH]c5ccccc5c4CCN3C[C@@H]2CC[C@@H]1O [YOHIMBINE HYDROCHLORIDE]
  inhibition: 23%

## CCCOc1ccccc1-c1nc2nn[nH]c2c(=O)[nH]1 [ZAPRINAST]
[1]
  inhibition: 7%

## Cc1cn([C@H]2C[C@H](N=[N+]=[N-])[C@@H](CO)O2)c(=O)[nH]c1=O [ZIDOVUDINE [AZT]]
[3]
  20mM inhibition LmjIPCS: 7%

## CN(C)CCc1c[nH]c2ccc(C[C@H]3COC(=O)N3)cc12 [ZOLMITRIPTAN]
  20mM inhibition LmjIPCS: 44%

## Cc1cc(CC(=O)O)n(C)c1C(=O)c1ccc(Cl)cc1 [ZOMEPIRAC]
  inhibition at 20000 µM: 10%

## N#C/C(=C\c1cccc(O)c1)C(=O)O [alpha-CYANO-3-HYDROXYCINNAMIC ACID]
  inhibition at 20000 µM: 8%

## CC(=O)Oc1c(C)c(C)c2c(c1C)CCC(C)(CCC[C@H](C)CCC[C@H](C)CCCC(C)C)O2 (stereo partly drawn) [alpha-TOCOPHERYL ACETATE]
  inhibition at 20000 µM: -0.425%

## CC1=C(/C=C/C(C)=C/C=C/C(C)=C/C=C/C=C(C)/C=C/C=C(C)/C=C/C2=C(C)CCCC2(C)C)C(C)(C)CCC1 [beta-CAROTENE]
  20mM inhibition LmjIPCS: 45%

## COc1cc([C@@H]2c3cc4c(c(O)c3C[C@H]3COC(=O)[C@@H]32)OCO4)cc(OC)c1OC [beta-PELTATIN]
  inhibition at 20000 µM: -1.86%

## NCCCC(=O)O [gamma-AMINOBUTYRIC ACID]
  inhibition: -20%

## NC(Cc1ccc(Cl)cc1)C(=O)O (stereo not drawn) [p-CHLOROPHENYLALANINE]
[3]
  20mM inhibition LmjIPCS: 4%

## BACITRACIN
[2]
  20mM inhibition LmjIPCS: 44%

## BENZALKONIUM CHLORIDE
  20mM inhibition LmjIPCS: 9%

## CAPREOMYCIN
[2]
  20mM inhibition LmjIPCS: 52%

## COLISTIMETHATE
[2]
  20mM inhibition LmjIPCS: 56%

## CRESOL
  20mM inhibition LmjIPCS: 53%

## DEGUELIN(-)
  20mM inhibition LmjIPCS: 51%

## HECOGENIN
  20mM inhibition LmjIPCS: 23%

## MERBROMIN
  20mM inhibition LmjIPCS: -21%
